Assay results from US20250197372A1 (priority 2020, published 2025).

Legend:
[1] = molecular target: T1, recombinant human GBA (beta-glucocerebrosidase) (Homo sapiens, UniProt P04062); assay: Beta-glucocerebrosidase (GBA, glucosylceramidase) assay (4-methylumbelliferyl-beta-D-pyranoside substrate, fluorescence); type: biochemical
T1 sequence (P04062 40-536): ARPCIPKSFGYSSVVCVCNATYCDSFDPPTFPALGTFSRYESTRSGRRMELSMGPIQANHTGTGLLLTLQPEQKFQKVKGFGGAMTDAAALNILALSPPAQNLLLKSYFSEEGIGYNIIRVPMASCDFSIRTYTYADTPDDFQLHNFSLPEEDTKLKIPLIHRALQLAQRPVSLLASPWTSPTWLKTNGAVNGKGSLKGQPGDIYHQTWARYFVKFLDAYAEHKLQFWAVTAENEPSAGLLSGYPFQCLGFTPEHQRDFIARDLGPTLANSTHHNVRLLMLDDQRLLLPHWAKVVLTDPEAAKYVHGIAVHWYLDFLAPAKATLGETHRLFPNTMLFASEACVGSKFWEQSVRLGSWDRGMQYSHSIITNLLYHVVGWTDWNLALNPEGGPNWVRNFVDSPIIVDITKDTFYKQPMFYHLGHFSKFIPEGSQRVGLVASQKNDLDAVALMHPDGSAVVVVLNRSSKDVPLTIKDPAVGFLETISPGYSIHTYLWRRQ
How it was run: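 Recombinant human GBA preincubated with compound dilutions 60 min at 37 °C, then 4-methylumbelliferyl-beta-D-pyranoside added for 60 min at 37 °C. Stopped at pH 10 (glycine/NaOH); fluorescence ex 365/em 440 nm. IC50 from 4-PL fit of inhibition relative to untreated enzyme.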

[2] = molecular target: rat sucrase (partially purified alpha-glucosidase from intestinal rat powder) (Rattus norvegicus, UniProt P23739); assay: Intestinal alpha-glucosidase assay, sucrose substrate (Glucose GO Kit); type: biochemical
How it was run: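 Partially purified rat intestinal alpha-glucosidase preincubated 60 min at 37 °C with serial compound dilutions, then sucrose substrate added for 30 min at 37 °C. Reaction stopped by 5 min at 90 °C; released glucose detected with Glucose GO kit. IC50 from 4-PL fit of % inhibition vs concentration.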

Sequence of rat sucrase (partially purified alpha-glucosidase from intestinal rat powder) (P23739 whole entry): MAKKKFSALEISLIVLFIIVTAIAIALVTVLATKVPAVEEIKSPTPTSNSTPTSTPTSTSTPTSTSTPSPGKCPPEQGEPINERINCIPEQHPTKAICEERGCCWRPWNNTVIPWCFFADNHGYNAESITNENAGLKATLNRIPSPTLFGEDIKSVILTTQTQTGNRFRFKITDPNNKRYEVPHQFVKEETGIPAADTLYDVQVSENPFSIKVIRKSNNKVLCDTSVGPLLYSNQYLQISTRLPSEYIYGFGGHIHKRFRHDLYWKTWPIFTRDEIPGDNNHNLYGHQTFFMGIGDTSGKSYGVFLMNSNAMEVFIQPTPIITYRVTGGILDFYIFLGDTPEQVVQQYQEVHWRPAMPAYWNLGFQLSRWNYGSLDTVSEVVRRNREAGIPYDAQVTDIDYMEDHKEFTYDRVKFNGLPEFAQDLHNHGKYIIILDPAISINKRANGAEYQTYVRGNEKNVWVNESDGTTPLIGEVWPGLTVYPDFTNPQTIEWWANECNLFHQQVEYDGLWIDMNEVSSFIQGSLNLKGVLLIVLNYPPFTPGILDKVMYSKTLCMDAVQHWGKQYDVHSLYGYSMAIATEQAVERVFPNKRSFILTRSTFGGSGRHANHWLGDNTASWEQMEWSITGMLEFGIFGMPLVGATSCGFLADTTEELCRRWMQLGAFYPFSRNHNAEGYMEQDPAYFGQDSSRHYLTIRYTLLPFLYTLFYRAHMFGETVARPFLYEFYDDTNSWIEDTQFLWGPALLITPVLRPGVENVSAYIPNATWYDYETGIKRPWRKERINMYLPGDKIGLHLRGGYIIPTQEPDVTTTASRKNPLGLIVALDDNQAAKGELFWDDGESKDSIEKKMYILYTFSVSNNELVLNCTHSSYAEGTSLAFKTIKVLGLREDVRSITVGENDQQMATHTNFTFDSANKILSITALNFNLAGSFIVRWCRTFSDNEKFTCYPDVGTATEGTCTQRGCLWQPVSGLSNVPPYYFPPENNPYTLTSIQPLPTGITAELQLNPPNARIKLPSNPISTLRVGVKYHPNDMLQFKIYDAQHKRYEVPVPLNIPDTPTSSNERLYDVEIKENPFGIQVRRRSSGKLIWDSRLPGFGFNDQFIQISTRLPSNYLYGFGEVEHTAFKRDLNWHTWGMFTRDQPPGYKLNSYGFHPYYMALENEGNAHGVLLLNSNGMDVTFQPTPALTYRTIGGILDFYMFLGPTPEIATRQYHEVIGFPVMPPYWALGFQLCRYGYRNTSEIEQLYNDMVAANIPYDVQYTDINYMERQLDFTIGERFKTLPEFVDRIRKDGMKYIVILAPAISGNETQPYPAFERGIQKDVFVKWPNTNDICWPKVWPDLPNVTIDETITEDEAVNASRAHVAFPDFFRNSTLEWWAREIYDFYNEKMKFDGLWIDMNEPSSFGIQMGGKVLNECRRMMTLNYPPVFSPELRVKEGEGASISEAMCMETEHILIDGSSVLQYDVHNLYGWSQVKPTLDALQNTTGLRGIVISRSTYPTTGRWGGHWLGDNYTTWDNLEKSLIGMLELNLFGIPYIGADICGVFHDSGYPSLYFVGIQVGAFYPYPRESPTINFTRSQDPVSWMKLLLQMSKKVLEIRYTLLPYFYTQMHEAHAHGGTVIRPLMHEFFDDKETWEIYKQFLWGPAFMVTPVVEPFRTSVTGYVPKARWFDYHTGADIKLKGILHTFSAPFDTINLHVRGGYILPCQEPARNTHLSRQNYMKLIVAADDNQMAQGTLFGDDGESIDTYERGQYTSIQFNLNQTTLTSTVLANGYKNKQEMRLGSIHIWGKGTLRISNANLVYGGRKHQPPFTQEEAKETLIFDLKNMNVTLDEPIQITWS

| SMILES | IC50 [1] | IC50 [2] |
| --- | --- | --- |
| CS(C)=NS(=O)(=O)c1cc(-c2ncccn2)ccc1NCCCCCCN1C[C@H](O)[C@@H](O)[C@H](O)[C@H]1CO [Compound 1247, N-(dimethyl-2-sulfanylidene)-5-(pyrimidin-2-yl)-2-({6-[(2R,3R,4R,5S)-3,4,5-trihydroxy-2-(hydroxymethyl)piperidin-1-yl]hexyl}amino)benzene-1-sulfonamide] | 11800 nM | 216 nM |
| N#Cc1cc(Br)cc(NCc2ccc(CN3C[C@H](O)[C@@H](O)[C@H](O)[C@H]3CO)cc2)c1 [Compound 1026, 3-bromo-5-{[(4-{[(2R,3R,4R,5S)-3,4,5-trihydroxy-2-(hydroxymethyl)piperidin-1-yl]methyl}phenyl)methyl]amino}benzonitrile] | 37900 nM | < 1 nM |
| CN(C)Cc1ccc(NCCCCCCN2C[C@H](O)[C@@H](O)[C@H](O)[C@H]2CO)c(C(=O)O)c1 [Compound 1245, 5-[(dimethylamino)methyl]-2-({6-[(2R,3R,4R,5S)-3,4,5-trihydroxy-2-(hydroxymethyl)piperidin-1-yl]hexyl}amino)benzoic acid] | 56000 nM | 120 nM |
| OC[C@@H]1[C@@H](O)[C@H](O)[C@@H](O)CN1CCCCCCCCC1CNCCO1 (stereo partly drawn) [Compound 1311, (2R,3R,4R,5S)-2-(hydroxymethyl)-1-[8-(morpholin-2-yl)octyl]piperidine-3,4,5-triol] | 26200 nM | 1010 nM |
| [N-]=[N+]=Nc1ccc(NCCc2cccc(CCN3C[C@H](O)[C@@H](O)[C@H](O)[C@H]3CO)c2)c([N+](=O)[O-])c1 [Compound 1240, (2R,3R,4R,5S)-1-[2-(3-{2-[(4-azido-2-nitrophenyl)amino]ethyl}phenyl)ethyl]-2-(hydroxymethyl)piperidine-3,4,5-triol] | 496 nM | 318 nM |
